# In patent publication US11733246B2, “Compositions, imaging, and therapeutic methods targeting folate receptor 1 (FOLR1)” (Indi Molecular, Inc., priority 2020, dated 2023):
# Like-named read-outs stand apart in the source and are kept apart here. Numbered stars: 1 amine (or outer) side, 2 acyl side, 3 side chain; on linkers, the order of the positions; unused ones are H or OH. Bridge positions count the residues as written; N and C are the ends. Square brackets hold non-standard residues; d marks the D form. Triazole bridges read from a SMILES are 1,4-linked. Peptide text beside a SMILES is read from it. * marks the point of attachment. DOTA = O=C(O)CN1CCN(CC(=O)O)CCN(CC(=O)*)CCN(CC(=O)O)CC1; Pteroyl = Nc1nc2ncc(CNc3ccc(C(=O)*)cc3)nc2c(=O)[nH]1; Biotin = O=C1N[C@H]2[C@H](CS[C@H]2CCCCC(=O)*)N1; Butanoyl(4-(4-I-phenyl)) = O=C(CCCc1ccc(I)cc1)*; PEG10 = NCCOCCOCCOCCOCCOCCOCCOCCOCCOCCOCCC(=O)O; Lys(N3) = [N-]=[N+]=NCCCC[C@H](N)C(=O)O; γGlu = O=C(O)[C@H](CCC(=O)[*:2])N[*:1]; AEEEA = NCCOCCOCCOCC(=O)O; Pra = C#CC[C@H](N)C(=O)O
# Tests used:
# [1] = Plasma protein binding (equilibrium dialysis), human; format: in vitro ADME
# Description: (§1) HTD 96 a/b regenerated cellulose membrane strips with mass cutoff of 12-14 kDa were soaked in ultra-pure water at room temperature for 1 hour. Each swelled membrane was then soaked in 20:80 ethanol:water for 20 minutes.
# (§2) Just prior to the experiment, the membranes were re-soaked in ultra-pure water. Plasma was prepared by thawing under cold water. The plasma was centrifuged to remove any clots and pH was adjusted to 7.0-8.0. Test articles and control compounds were diluted to 2 μM. The dialysis device was loaded by transferring 150 μL of the test article (in triplicate) to the donor side. The dialysis device was placed in a humidified incubator at 37° C. with 5% CO2 in a shaking platform that rotated slowly for 4 hours. After incubation, 50 μL of the supernatant was taken from both sides and analyzed by LC-MS/MS.
# (§3) To optimize the albumin binding potential of the heterobiligand, a plasma protein binding (PPB) experiment was performed. This experiment measured the amount of test article bound and free after equilibrating with plasma. Compound #6305 (folate-hshta-Lys(MPBA)-Gly-Phe-Lys(DOTA) (SEQ ID NO:6)), which contains the MPBA albumin binder, was 96.26% bound to mouse plasma and 98.34% bound to human plasma. […] In mouse and human plasmas 99.6% and 99.5% was bound, respectively.
# human plasma proteins = experiment: as above; format: in vitro ADME; details: human, plasma
# Description: as §1, §2, §3
# [2] = Plasma protein binding (equilibrium dialysis), mouse; format: in vitro ADME, CD-1 mouse
# Description: as §1, §2, §3
# mouse plasma proteins = experiment: as above; format: in vitro ADME, CD-1 mouse; details: mouse, plasma
# Description: as §1, §2, §3
# human recombinant NEP = human recombinant NEP (Homo sapiens, UniProt P08473); format: biochemical
# human recombinant NEP, sequence (P08473 whole entry): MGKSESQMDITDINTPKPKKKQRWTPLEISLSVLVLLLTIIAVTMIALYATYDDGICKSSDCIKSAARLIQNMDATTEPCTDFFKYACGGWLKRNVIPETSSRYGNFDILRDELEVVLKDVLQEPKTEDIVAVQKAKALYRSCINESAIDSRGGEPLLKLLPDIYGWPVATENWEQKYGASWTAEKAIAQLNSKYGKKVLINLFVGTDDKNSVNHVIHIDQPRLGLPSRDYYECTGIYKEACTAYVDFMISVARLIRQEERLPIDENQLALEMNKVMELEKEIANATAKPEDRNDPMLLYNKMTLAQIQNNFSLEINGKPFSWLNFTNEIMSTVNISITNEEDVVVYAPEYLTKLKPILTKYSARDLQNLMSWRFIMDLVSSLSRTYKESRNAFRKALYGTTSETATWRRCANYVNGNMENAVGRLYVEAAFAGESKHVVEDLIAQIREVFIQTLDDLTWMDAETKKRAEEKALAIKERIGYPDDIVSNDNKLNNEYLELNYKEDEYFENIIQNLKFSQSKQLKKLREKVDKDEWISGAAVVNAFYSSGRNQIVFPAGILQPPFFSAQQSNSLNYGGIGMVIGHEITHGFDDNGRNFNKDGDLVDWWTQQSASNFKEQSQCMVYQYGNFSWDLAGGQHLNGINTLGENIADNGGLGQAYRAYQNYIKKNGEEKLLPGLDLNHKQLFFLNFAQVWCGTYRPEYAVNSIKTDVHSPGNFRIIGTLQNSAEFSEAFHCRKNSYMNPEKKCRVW
# Description: In order to test the susceptibility of GFK and MVK linkers to NEP-mediated cleavage, the peptide (Folate-hshta-Lys(MPBA)-Gly-Phe-Lys(DOTA) (SEQ ID NO:6)) was incubated with human recombinant NEP and analyzed the solution for the presence of cleaved adducts. MALDI was utilized to monitor the cleavage of a PCC heterobiligand that contains a NEP protease recognizable sequence (G-F-K). The PCC concentration was constant and the NEP concentration was titrated down from 10 nM to 1 nM, 0.1 nM, 0.01 nM, and no NEP. The NEP-mediated cleaved adduct was identified by mass. 10 μM PCC containing the GFK linker was combined with varying amounts of NEP. […] Below 0.1 nM no cleavage was observed. • Folate-hshta-Lys(MPBA)-Gly-Phe-Lys(DOTA) (SEQ ID NO:6) • Molecular weight 2231.42
# The NEP-mediated cleavage was also monitored by HPLC. In agreement with the MALDI spectra, the HPLC chromatograms show depletion of the parent brush-border heterobiligand (retention time 17.1 minutes), dose-dependent on the amount of NEP spiked into the sample (10 nM, 1 nM, 0.1 nM, 0.01 nM, and no NEP). An appearance of a new peak (retention time 16.5 minutes) in concert with the depletion of the starting material is presumed to be the cleaved folate-containing peptide.
# In order to test the specificity of NEP, a non-cleavable linker (PEG3) was also assayed.
# To reduce the radioactive dose to the kidney, Indi ^177Lu-7327 was constructed to incorporate a GFK linker that is susceptible to cleavage by enzymes found predominately in the kidney's brush border. These enzymes cleave off the radionuclide-chelator complex, which is quickly eliminated by the kidney for excretion in the urine. The zinc metalloprotease neprilysin (NEP) is expressed with high abundance in the kidney. […] To confirm NEP-mediated cleavage of the GFK linker in Indi 7327, the peptide was incubated with recombinant human NEP at 37° C. for 1 h and analyzed by matrix-assisted laser desorption/ionization mass spectrometry (MALDI-MS) for the evolution of cleaved adducts (FIG. 42). […] The expected cleaved adduct (mass: 1283.16 m/z) appears in the samples containing 10, 1.0, and 0.1 nM NEP. […] Below 0.1 nM NEP, no cleavage was observed. In addition to confirming the selectivity of NEP for the GFK linker, it is also important to note that the remaining portions of the Indi 7327 were impervious to the enzyme.
# FOLR1 [3] = target: T1, FOLR1 (Homo sapiens, UniProt P15328); experiment: ELISA assay of FOLR1 binding
# T1 construct: His; purchased SinoBiological 11241-H08H
# T1 sequence (P15328 25-234): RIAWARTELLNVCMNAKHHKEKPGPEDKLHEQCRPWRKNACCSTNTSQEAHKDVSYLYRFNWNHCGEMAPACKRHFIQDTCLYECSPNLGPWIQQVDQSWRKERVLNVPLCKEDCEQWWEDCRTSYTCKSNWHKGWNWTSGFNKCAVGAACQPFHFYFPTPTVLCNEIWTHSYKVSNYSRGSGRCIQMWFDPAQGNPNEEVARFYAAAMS
# Description: FIG. 5 is a diagram of ELISA assay of FOLR1 binding of heterobiligands.
# Nonclinical studies were first conducted with Folate-hshta-PEG10-PEG10-K(Biotin), where Folate-hshta is the targeting heterobiligand, PEG10 is a deca(ethylene glycol) linker, and K(Biotin) is the detection label.
# FOLR1 [4] = target: T1, FOLR1; experiment: Competition ELISA with folic acid; format: binding
# Description: A competition experiment was conducted to further understand the binding kinetics of the lead heterobiligand (folate-hshta (SEQ ID NO:6) Nterm heterobiligand).
# (§4) Nonclinical studies were first conducted with Folate-hshta-PEG10-PEG10-K(Biotin), where Folate-hshta is the targeting heterobiligand, PEG10 is a deca(ethylene glycol) linker, and K(Biotin) is the detection label. […] Cross reactivity with the murine folate receptor was also observed. […] In the merged image, purple puncta were observed indicating co-localization of internalized heterobiligand with early endosomes (Rab5a+ vesicles) in OVCAR3 cells.
# OVCAR3 FOLR1+ cells = experiment: Flow cytometry binding to FOLR1 (+) cells; format: cell-based, human
# Description: (§5) Both the kyeet (SEQ ID NO:9) and hshta (SEQ ID NO:6)-derived biligands were tested by flow cytometry for binding to FOLR1 (+) and FOLR1 (−) cell lines (FIGS. 6 and 7). The human ovarian adenocarcinoma-derived cell line OVCAR3 has robust FOLR1 expression and was selected as the FOLR1 (+) cell line. The human prostate adenocarcinoma-derived cell line PC-3 was selected as a FOLR1 (−) cell line.
# Competition at the cellular level was also probed.
# Increasing the serum-bound fraction of the peptide may decrease first pass removal of the heterobiligand, and drive compound retention of tumor over kidney. Constructs bearing the known albumin binder 4-methylphenyl butyric acid (4-MPBA) were synthesized. These compounds were evaluated in vitro to verify binding fidelity to FOLR1. The modified heterobiligands were incubated at 400 nM with OVCAR3 and PC-3 cells for 20 minutes at 37° C. in complete media containing 20% FBS. They both bind to OVCAR3 FOLR1+ cells with similar binding affinities as the original heterobiligand studied (FIG. 14). […] Similar activity of these heterobiligands is anticipated in vivo.
# PC3 FOLR1− cells = experiment: Flow cytometry binding to FOLR1 (−) cells; format: cell-based, human
# Description: as §5
# OVCAR3 cells = experiment: Cell internalization assay (acid wash, flow cytometry); format: cell-based, human
# Description: FIG. 10 is a diagram of an assay for assessing cell internalization FOLR1 heterobiligands.
# The folate-hshta (SEQ ID NO:6) Nterm heterobiligand was also evaluated in cell penetration imaging assays (FIG. 10). OVCAR3 and PC-3 cells were incubated with the test article at 37° C. for 1 hour. Flow cytometry analysis of the resulting treated cells indicated strong binding to FOLR1 (+) cells. To understand the proportion bound to the surface but not internalized, the cells were briefly washed with acid to liberate the non-internalized peptide.
# as §4
# in vitro [5] = details: human, plasma, pH 7.4, Plasma Stability (t 1/2)
# Description: (§6) Plasma was thawed in a 37° C. water bath. Residual clots were removed via centrifugation at 4000 rpm for 5 minutes. The pH of the plasma was adjusted to 7.4 if required. Test articles were diluted to 100 μM by diluting a 1 mM working solution (in DMSO) with 45% methanol in water. To 98 μL of plasma was added 2 μL of the 100 μM solution, resulting in 2 μM final concentration of the test article. Samples were incubated at 37° C. in a water bath. At the indicated time points (0, 10, 30, 60, 120 minutes) 100 μL of 4% H3PO4 was added followed by 800 μL of stop solution (200 ng/mL tolbutamide and 200 ng/mL labetalol in 100% acetonitrile). The samples were centrifuged and the plasma protein-free supernatant (100 μL) was subjected to LC-MS/MS analysis.
# in vitro [6] = details: CD-1, mouse, plasma, pH 7.4, Plasma Stability (t 1/2)
# Description: as §6
# [7] = target: mouse recombinant FOLR1 (rMuFOLR1) (Mus musculus, UniProt P35846); experiment: ELISA binding to mouse recombinant FOLR1
# mouse recombinant FOLR1 (rMuFOLR1), sequence (P35846 25-232): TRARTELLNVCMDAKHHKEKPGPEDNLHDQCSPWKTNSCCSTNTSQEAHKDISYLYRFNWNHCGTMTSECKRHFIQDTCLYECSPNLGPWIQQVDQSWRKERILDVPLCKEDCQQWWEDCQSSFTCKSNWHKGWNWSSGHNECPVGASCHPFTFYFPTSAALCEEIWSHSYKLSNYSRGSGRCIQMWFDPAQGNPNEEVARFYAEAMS
# Description: Further evaluation of the folate-hshta (SEQ ID NO:6) Nterm heterobiligand depended on cross reactivity with mouse recombinant FOLR1 (rMuFOLR1). The heterobiligand binds to both species' variants of FOLR1 with high affinity. This observation was expected given the high homology between the two variants (approximately 92%).
smiles,measurement,setting,value
"C[C@H](O)[C@H]1NC(=O)[C@@H](Cc2c[nH]cn2)NC(=O)[C@@H](CO)NC(=O)[C@@H](Cc2c[nH]cn2)NC(=O)[C@@H](NC(=O)CC[C@H](NC(=O)c2ccc(NCc3cnc4nc(N)[nH]c(=O)c4n3)cc2)C(=O)O)Cc2cn(nn2)CCCC[C@@H](C(=O)N[C@@H](CCCCNC(=O)CCCc2ccc(I)cc2)C(=O)NCC(=O)N[C@@H](Cc2ccccc2)C(=O)N[C@@H](CCCCNC(=O)CN2CCN(CC(=O)O)CCN(CC(=O)O)CCN(CC(=O)O)CC2)C(=O)O)NC(=O)[C@@H](C)NC1=O [compound #1307, Fol-hshta-Lys(4-IPBA)-Gly-Phe-Lys(DOTA)] ({Pteroyl-γGlu}-[Pra][dH][dS][dH][dT][dA][Lys(N3)]K(Butanoyl(4-(4-I-phenyl)))GFK(DOTA)-OH; triazole 1-7)",recovery,[1],84.4%
same,Plasma % Bound,human plasma proteins,Hu: 99.50%
same,recovery,[2],87.7%
same,Plasma % Bound,mouse plasma proteins,Mu: 99.60%
same,in vitro Assay Data (NEP assay),human recombinant NEP,Cleavage of -G-F-K-
"C[C@H](O)[C@H]1NC(=O)[C@@H](Cc2c[nH]cn2)NC(=O)[C@@H](CO)NC(=O)[C@@H](Cc2c[nH]cn2)NC(=O)[C@@H](NC(=O)CC[C@H](NC(=O)c2ccc(NCc3cnc4nc(N)[nH]c(=O)c4n3)cc2)C(=O)O)Cc2cn(nn2)CCCC[C@@H](C(=O)NCCOCCOCCOCCOCCOCCOCCOCCOCCOCCOCCC(=O)NCCOCCOCCOCCOCCOCCOCCOCCOCCOCCOCCC(=O)N[C@@H](CCCCNC(=O)CCCC[C@@H]2SC[C@@H]3NC(=O)N[C@@H]32)C(N)=O)NC(=O)[C@@H](C)NC1=O [Folate-hshta Nterm, Folate-hshta-PEG10-PEG10-K(Biotin)] ({Pteroyl-γGlu}-[Pra][dH][dS][dH][dT][dA][Lys(N3)][PEG10][PEG10]K(Biotin)-NH2; triazole 1-7)",affinity relative to folate itself,FOLR1 [3]; ELISA,~30 fold
same,displacement by exogenous folate in competitive ELISA,FOLR1 [4],resilient to displacement by exogenous folate
same,binding affinity of the heterobiligand in presence of folic acid,FOLR1 [4]; folic acid from 0 to 500 nM,virtually unchanged
same,competition by folic acid,FOLR1 [4]; folic acid greater than 500 nM,partially compete away
same,percentage of OVCAR3 cells binding,OVCAR3 FOLR1+ cells; 0.1 μg/mL folate,57%
same,selectivity for FOLR1 (+) cells over FOLR1 (−) cells,"OVCAR3 FOLR1+ cells; OVCAR3 vs PC-3, flow cytometry",high selectivity for FOLR1 (+) cells
same,binding against OVCAR3 FOLR1+ cells,OVCAR3 FOLR1+ cells; flow cytometry,Dose-dependent binding
same,selectivity compared with commercially available FOLR1 antibody,OVCAR3 FOLR1+ cells; flow cytometry,superior to a commercially available FOLR1 antibody
same,binding against OVCAR3 FOLR1+ cells,"OVCAR3 FOLR1+ cells; flow cytometry, listed as lead heterobiligand",best binding
same,displacement by exogenous folic acid at the cellular level,"OVCAR3 FOLR1+ cells; increasing exogenous folic acid, flow cytometry",more resilient to folic acid displacement than biotinylated folic acid
same,percentage of OVCAR3 cells binding,OVCAR3 FOLR1+ cells; no folate,76.6%
same,binding of PC3 FOLR1− cells,PC3 FOLR1− cells,low non-specific binding
same,percentage of positively stained cells,"OVCAR3 cells; OVCAR3, 37° C. 1 hour, before acid treatment",73.4%
same,percentage of positively stained cells,"OVCAR3 cells; OVCAR3, following acid treatment",54.2%
"C[C@H](O)[C@H]1NC(=O)[C@@H](Cc2cnc[nH]2)NC(=O)[C@@H](CO)NC(=O)[C@@H](Cc2cnc[nH]2)NC(=O)[C@@H](NC(=O)CC[C@H](NC(=O)c2ccc(NCc3cnc4nc(N)[nH]c(=O)c4n3)cc2)C(=O)O)Cc2cn(nn2)CCCC[C@@H](C(=O)NCC(=O)N[C@@H](Cc2ccccc2)C(=O)N[C@@H](CCCCNC(=O)CN2CCN(CC(=O)O)CCN(CC(=O)O)CCN(CC(=O)O)CC2)C(=O)O)NC(=O)[C@@H](C)NC1=O [compound #7327, Fol-hshta-Gly-Phe-Lys(DOTA)] ({Pteroyl-γGlu}-[Pra][dH][dS][dH][dT][dA][Lys(N3)]GFK(DOTA)-OH; triazole 1-7)","recovery at 4 h, 2 μM",[1]; human,113%
same,"fraction unbound at 4 h, 2 μM","[1]; human, plasma",0.597
same,"recovery at 4 h, 2 μM","[2]; CD-1, mouse",102%
same,"fraction unbound at 4 h, 2 μM","[2]; CD-1, mouse, plasma",0.591
same,in vitro Assay Data (NEP assay),human recombinant NEP,Cleavage of -G-F-K-
same,half-life at 2 μM,in vitro [5],> 115 h
same,half-life at 2 μM,in vitro [6],> 115 h
C[C@H](O)[C@H]1NC(=O)[C@@H](Cc2c[nH]cn2)NC(=O)[C@@H](CO)NC(=O)[C@@H](Cc2c[nH]cn2)NC(=O)[C@@H](NC(=O)COCCOCCOCCNC(=O)CCCC[C@@H]2SC[C@@H]3NC(=O)N[C@@H]32)Cc2cn(nn2)CCCC[C@@H](C(N)=O)NC(=O)[C@@H](C)NC1=O [hshta] ({Biotin-AEEEA}-[Pra][dH][dS][dH][dT][dA][Lys(N3)]-NH2; triazole 1-7),EC50,"FOLR1 [3]; Human FOLR1, read-out: Ec50",3.4 µM
same,EC50,"FOLR1 [3]; read-out: EC50 (ELISA, FOLR1)",3.92 µM
same,EC50,[7],2.1 µM
